Like-named read-outs stand apart in the source and are kept apart here.
Columns and labels:
[1] = tested on: HUVEC; experiment: cells; conditions: for additive effect with Cilengitide: chemotherapeutic combined with Cilengitide; for additive effect with DI-17E6: chemotherapeutic combined with DI-17E6; for additive effect with Mab 17E6: chemotherapeutic combined with Mab 17E6
Description: The experimental design gives answer to the question whether blockade of the one lowered the IC50 of the other for blockade endothelial cell growth in the presence of tumor growth factors VEGFA and FGF2.
Plates were coated with 100 μl VN at 1 μg/ml in PBS per 96-well at 4° C. overnight. […] When added in combination the two test substances were mixed at the starting concentrations and the mixture was serially diluted as for the single agents alone. In some assays the chemotherapeutics were serially diluted in the presence of a constant amount of the alpha V blockers at the IC50 or IC70 concentrations. Plates were incubated for 72 hours, then relative cell number was determined by the addition of 20 ul/well Alamar Blue (Resazurin).
Points were run in duplicate or in triplicate. Reagent blanks, containing media plus Alamar Blue without cells, were run on each plate.
Tests were routinely run using HUVEC in media containing 10 ng/ml FGF-2 or HDMVEC in media containing 10 ng/ml VEGF.

[2] = tested on: NP18-b3 pancreatic tumor; experiment: Orthotopic pancreatic xenograft; format: in vivo, nude mice; conditions: EMD 525797 500 μg per animal or gemcitabine 50 mg/Kg, i.p. 3 times a week; 6 weeks
Description: NP18-b3 pancreatic human cell line, which expresses αvβ3-integrin, was implanted orthotopically into the pancreas of immunosuppressed mice. The animals were randomized to and one week later treatment with drugs and vehicle started.
Tumors were removed and cut into pieces of 10 mg each. These pieces were then sutured to the pancreas of healthy animals (one piece per animal). 4-6 weeks later, tumors were removed, cut into pieces again and stitched into new animals. Those new animals were then randomized and one week later treatment with drugs and vehicle was started. EMD 525797 was dosed i.p. at 500 μg per animal three times a week. Gemcitabine was administered as a suboptimal dose of 50 mg/Kg 3 times a week (suboptimal dose based on previous studies). In a fourth group, EMD 525797 was combined with suboptimal doses of gemcitabine based on previous experiments. Tumor growth measurement (weight of the removed tumors) was made 6 weeks after the tumor grafting.

[3] = HUVEC, 10 ng/ml FGF-2, 72 hours, single agent
[4] = Homo sapiens, HUVEC, 72 h, 10 ng/ml FGF-2, 72 hours, single agent

| Structure (SMILES) | IC50 [1, 3] | additive effect with Cilengitide [1] | additive effect with DI-17E6 [1] | additive effect with Mab 17E6 [1] | IC50 [1, 4] | IC50 ([1]; Homo sapiens, HUVEC, 72 h) | tumor size and weight, monotherapy [2] | IC50 ([1]; Homo sapiens, HUVEC, read-out: IC50 in combination with 17E6, HUVEC, combination with 17E6) | IC50 ([1]; Homo sapiens, HUVEC, read-out: IC50 in combination with Cilengitide, HUVEC, combination with Cilengitide) | IC50 ([1]; Homo sapiens, HUVEC, read-out: IC50 in combination with DI-17E6, HUVEC, combination with DI-17E6) | IC50 (in words) [1, 3] |
| --- | --- | --- | --- | --- | --- | --- | --- | --- | --- | --- | --- |
| O=c1[nH]cc(F)c(=O)[nH]1 [5FU] | 14500 nM | yes | yes | yes | – | – | – | – | – | – | – |
| CC[C@@]1(O)C(=O)OCc2c1cc1n(c2=O)Cc2cc3ccccc3nc2-1 [Camptothecin] | – | yes | yes | yes | 80 nM | – | – | – | – | – | – |
| N.N.[Cl][Pt][Cl] [Cisplatinin] | 13200 nM | yes | yes | yes | – | – | – | – | – | – | – |
| COc1cccc2c1C(=O)c1c(O)c3c(c(O)c1C2=O)C[C@@](O)(C(=O)CO)C[C@@H]3O[C@H]1C[C@H](N)[C@H](O)[C@H](C)O1 [Doxorubicin] | – | yes | yes | yes | 200 nM | – | – | – | – | – | – |
| C[C@]12CC[C@@H]3c4ccc(OC(=O)N(CCCl)CCCl)cc4CC[C@H]3[C@@H]1CC[C@@H]2O [Estramustine] | – | no | no | no | – | 182000 nM | – | – | – | – | – |
| COc1cc([C@@H]2c3cc4c(cc3[C@@H](O[C@@H]3O[C@@H]5CO[C@@H](C)O[C@H]5[C@H](O)[C@H]3O)[C@H]3COC(=O)[C@H]23)OCO4)cc(OC)c1O [Etoposide] | – | yes | yes | yes | 700 nM | – | – | – | – | – | – |
| Nc1ccn([C@@H]2O[C@H](CO)[C@@H](O)C2(F)F)c(=O)n1 [Gemcitabine] | – | yes | yes | yes | 4 nM | – | not active | – | – | – | – |
| N[C@@H](Cc1ccc(N(CCCl)CCCl)cc1)C(=O)O [Melphalan] | – | yes | yes | yes | – | 11400 nM | – | – | – | – | – |
| CC(=O)O[C@H]1C(=O)[C@@]2(C)[C@H]([C@H](OC(=O)c3ccccc3)[C@]3(O)C[C@H](OC(=O)[C@H](O)[C@@H](NC(=O)c4ccccc4)c4ccccc4)C(C)=C1C3(C)C)[C@]1(OC(C)=O)CO[C@@H]1C[C@@H]2O [Taxol, Paclitaxel] | 0.3 ng/mL | yes | yes | yes | 0.27 ng/mL | – | – | 0.18 ng/mL | 0.13 ng/mL | 0.1 ng/mL | – |
| Cn1nnc2c(C(N)=O)ncn2c1=O [Temozolmide] | – | no | no | no | – | – | – | – | – | – | inactive |
| CC[C@]1(O)C[C@H]2CN(CCc3c([nH]c4ccccc34)[C@@](C(=O)OC)(c3cc4c(cc3OC)N(C=O)[C@H]3[C@@](O)(C(=O)OC)[C@H](OC(C)=O)[C@]5(CC)C=CCN6CC[C@]43[C@@H]65)C2)C1 [Vincrisitin] | – | yes | yes | yes | 0.7 nM | – | – | – | – | – | – |

Source: patent US8562986B2, “Engineered anti-alpha V-integrin hybrid antibodies” (Merck Patent GmbH, priority 2007, dated 2013)
